Columns and labels:
[1] = biological target: T1, Peroxisome proliferator-activated receptor alpha (Homo sapiens, UniProt Q07869); experiment: Effective concentration against human Peroxisome proliferator activated receptor alpha
T1 sequence (Q07869 whole entry): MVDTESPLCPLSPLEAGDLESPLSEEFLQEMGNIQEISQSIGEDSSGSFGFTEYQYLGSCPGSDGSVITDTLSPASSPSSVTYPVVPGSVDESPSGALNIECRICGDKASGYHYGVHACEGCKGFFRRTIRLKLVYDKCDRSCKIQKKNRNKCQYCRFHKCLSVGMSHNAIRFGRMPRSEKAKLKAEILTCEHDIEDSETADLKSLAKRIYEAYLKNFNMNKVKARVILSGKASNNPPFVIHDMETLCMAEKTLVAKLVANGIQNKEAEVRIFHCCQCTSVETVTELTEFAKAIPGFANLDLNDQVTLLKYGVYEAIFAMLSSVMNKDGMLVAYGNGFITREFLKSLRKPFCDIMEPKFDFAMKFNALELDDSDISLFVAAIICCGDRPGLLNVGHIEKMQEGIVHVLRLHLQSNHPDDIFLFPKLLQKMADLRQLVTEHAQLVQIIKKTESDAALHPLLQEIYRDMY

Rattus norvegicus [2] = experiment: Half life was measured in male SD rat after 5 mg/kg intra arterial dosage; n=3
Rattus norvegicus [3] = experiment: Time to maximum concentration was measured in male SD rat after 10 mg/kg oral dosage; n=3
Rattus norvegicus [4] = experiment: Clearance was measured in male SD rat after 5 mg/kg intra arterial dosage; n=3
[5] = biological target: T1, Peroxisome proliferator-activated receptor alpha; experiment: Inhibition of human Peroxisome proliferator activated receptor alpha
[6] = biological target: T2, Peroxisome proliferator-activated receptor gamma (Homo sapiens, UniProt P37231); experiment: Inhibition of human Peroxisome proliferator activated receptor gamma
T2 sequence (P37231 whole entry): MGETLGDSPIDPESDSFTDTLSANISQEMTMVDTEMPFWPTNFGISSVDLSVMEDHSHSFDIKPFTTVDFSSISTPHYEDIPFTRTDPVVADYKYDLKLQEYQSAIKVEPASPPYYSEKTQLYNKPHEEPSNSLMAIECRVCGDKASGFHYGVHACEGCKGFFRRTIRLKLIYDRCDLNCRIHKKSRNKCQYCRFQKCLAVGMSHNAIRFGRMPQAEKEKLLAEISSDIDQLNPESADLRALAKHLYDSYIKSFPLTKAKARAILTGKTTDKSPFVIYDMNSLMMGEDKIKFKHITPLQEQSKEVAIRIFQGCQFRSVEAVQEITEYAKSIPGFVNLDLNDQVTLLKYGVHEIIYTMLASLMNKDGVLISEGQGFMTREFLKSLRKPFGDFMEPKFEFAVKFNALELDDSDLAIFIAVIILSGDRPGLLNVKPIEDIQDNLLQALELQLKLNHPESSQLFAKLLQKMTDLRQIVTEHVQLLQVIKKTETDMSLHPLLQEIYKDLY

[7] = biological target: T2, Peroxisome proliferator-activated receptor gamma

IC50 [6] [µM]	EC50 [7] [µM]	Compound	EC50 [1] [µM]	T1/2 (Rattus norvegicus [2]) [h]	Tmax (Rattus norvegicus [3]) [h]	CL (mL.min-1.kg-1) (Rattus norvegicus [4])	IC50 [5] [µM]
–	–	COc1ccc(OC(=O)N(CC(=O)O)Cc2ccc(OCCc3nc(-c4ccccc4)oc3C)cc2)cc1 [MURAGLITAZAR]	0.32	7.3	0.4	3	0.25
0.316	0.425	CCCCCCCN(CCc1ccc(O[C@@](C)(CC)C(=O)O)cc1)C(=O)Nc1ccc(F)cc1F	< 0.02	–	–	–	0.538
–	–	CC(C)(Oc1ccc(C(=O)c2ccc(Cl)cc2)cc1)C(=O)O [FENOFIBRIC ACID]	> 10	–	–	–	> 10
4.8	1.5	Cc1oc(-c2ccccc2)nc1CCOc1ccc(CN(CC(=O)O)Cc2ccccc2)cc1	0.02	–	–	–	1.4
